The values that follow come from publication PMC3978495, “Synthesis and Preliminary Evaluation of a 2-Oxoquinoline Carboxylic Acid Derivative for PET Imaging the Cannabinoid Type 2 Receptor” (Pharmaceuticals, 2014).

Where two headings read alike, the source gives them in different places. Some results are limits rather than exact numbers.

The target of one data set is T1, CB2 in rat spleen slices (Rattus norvegicus, UniProt Q9QZN9).
T1 construct: performed on 20 µm tissue slices (rat/mouse spleen) adsorbed to SuperFrost Plus slides; from tissue; host or cells: rat spleen slices (20 µm)
T1 sequence (Q9QZN9 1-360): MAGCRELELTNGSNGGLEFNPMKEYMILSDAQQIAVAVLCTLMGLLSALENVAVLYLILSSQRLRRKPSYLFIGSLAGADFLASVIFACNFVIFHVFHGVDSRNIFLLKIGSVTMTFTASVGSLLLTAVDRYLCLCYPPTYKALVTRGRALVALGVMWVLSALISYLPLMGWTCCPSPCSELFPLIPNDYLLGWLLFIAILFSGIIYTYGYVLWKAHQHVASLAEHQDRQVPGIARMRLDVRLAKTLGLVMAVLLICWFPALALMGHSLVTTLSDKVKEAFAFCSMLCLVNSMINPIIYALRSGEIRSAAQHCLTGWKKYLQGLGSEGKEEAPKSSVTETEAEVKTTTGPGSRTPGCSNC
Put plainly: In vitro autoradiography on rat spleen slices. It counts as binding. As for the experimental part:
(§1) In vitro autoradiography with [^11C]KP23 was performed on 20 µm tissue slices (rat/mouse spleen) adsorbed to SuperFrost Plus slides. Slices were thawed (10 min) on ice before pre-incubation with incubation buffer (50 mM TRIS/HCl, pH 7.4, containing 5% BSA) at 4 °C for 10 min. Excess solution was carefully removed and the tissue slices were dried in a ventilated hood for 10 min. Then slides were incubated with 0.6 or 0.2 nM [^11C]KP23 alone or together with specific CB2 agonist (GW405833, 1 µM) in incubation buffer. After incubation for 15 min at RT in a humid chamber, slides were washed twice with ice cold washing buffer (50 mM TRIS/HCl, pH 7.4, 1% BSA, 5% EtOH) for 2 min each and dipped twice in water. Dried slides were exposed to a phosphor imager plate for 30 min and the plate was scanned in a BAS5000 reader (Fujifilm, Dielsdorf, Switzerland).

The target in data set [1] is T2, CB2 in mouse spleen slices (Mus musculus, UniProt P47936).
T2 construct: performed on 20 µm tissue slices (rat/mouse spleen) adsorbed to SuperFrost Plus slides; from tissue; host or cells: mouse spleen slices (20 µm)
T2 sequence (P47936 whole entry): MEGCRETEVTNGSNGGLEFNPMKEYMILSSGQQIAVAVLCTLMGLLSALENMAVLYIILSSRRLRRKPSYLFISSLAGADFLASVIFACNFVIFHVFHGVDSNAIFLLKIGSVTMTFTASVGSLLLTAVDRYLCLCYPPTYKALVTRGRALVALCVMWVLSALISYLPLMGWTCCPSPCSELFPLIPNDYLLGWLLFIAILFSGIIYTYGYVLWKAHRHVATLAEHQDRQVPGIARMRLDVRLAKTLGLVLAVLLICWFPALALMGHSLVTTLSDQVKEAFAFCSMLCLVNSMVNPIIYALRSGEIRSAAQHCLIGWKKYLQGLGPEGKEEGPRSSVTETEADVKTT
As to the kind of experiment: In vitro autoradiography on mouse spleen slices. It counts as binding. As for the experimental part: as §1

Data set [2] can be described thus: In vitro stability in phosphate buffer (PBS). It counts as physicochemical. The note with it: PBS pH 7.4, 37 °C, 40 min. As for the experimental part: (§2) To test the plasma stability of the radioligand, 10 µL (4 MBq) of [^11C]KP23 solution were added to phosphate buffer (300 µL, 4 mM NaH2PO4/Na2HPO4, 155 mM NaCl, pH 7.4), mouse and rat plasma (300 µL), respectively. The mixture was vortexed and four aliquots of 70 µL were incubated at 37 °C. Ice cold acetonitrile (100 µL) was added to stop the enzymatic reactions at different time points (0, 10, 20 and 40 min). After centrifugation (10,000 g, 3 min), the supernatant was passed through a filter (0.45 µm, Minisart SRP 4, Sartorius Stedim Biotech, Goettingen, Germany) and analyzed by UPLC.

Data set [3] is described as follows: In vitro stability in mouse plasma. It counts as in vitro ADME. To be noted: 37 °C, 40 min. As for the experimental part: as §2
The nature of data set [4]: In vitro stability in rat plasma. It counts as in vitro ADME. The note with it: 37 °C, 40 min. As to the method: as §2
Data set [5] can be described thus: In vivo dynamic PET imaging in Wistar rats. Also on record: species or system rat. As for the experimental part: PET scanning was performed with the GE VISTA eXplore PET/CT tomograph (Sedecal, Madrid, Spain). The scanner is characterized by high sensitivity (absolute central point source sensitivity of 4% for the […] energy windows) and an axial field of view of 4.8 cm. Male Wistar rats (278 ± 2 g, n = 2) were immobilized by isoflurane inhalation and the tracer was injected into a tail vein on the tomographic bed. Tracer accumulation in the spleen or brain were recorded by dynamic one-bed position PET scans over 60 min starting with the injection of 13 respectively 40 MBq (0.05 to 0.15 nmol) of [^11C]KP23. PET data was reconstructed by 3-dimensional FORE/2-dimensional OSEM in user-defined time frames with a voxel size of 0.3875 × 0.3875 × 0.775 mm. Singles and random corrections but no attenuation correction were applied. Image files were evaluated with the software PMOD v3.4 (PMOD Technologies Inc., Zurich, Switzerland). Time activity curves (TACs) of brain regions were generated with the implemented rat brain region of interest (ROI) template and TACs of the abdominal region with the respective ROIs generated by the PMOD segmentation tool. Spleen, liver and background TACs were confirmed by analysis of manually drawn regions of interest. Standardized uptake values (SUV) were calculated as tissue activities (Bq/cm^3), normalized to the injected dose per body weight (Bq/g).

For data set [6] the following is noted: rat, in vivo, iv; for percentage of parent tracer radioactivity in blood plasma: Wistar. As for the experimental part: [^11C]KP23 was administered intravenously to a restrained Wistar rat (413 g) by tail vein injection (ca. 160 MBq). The animal was sacrificed by decapitation 30 min p.i. and blood and urine were collected. Whole blood was collected in heparin-coated tubes (BD Vacutainers, Plymouth, UK) and centrifuged at 5,000 g for 5 min, 4 °C. The proteins of the supernatant plasma and urine were precipitated by addition of an equal volume of acetonitrile and centrifuged at 5,000 g for another 5 min. The supernatants were filtered and analyzed by UPLC. For the determination of in vivo radiometabolites at 15 min p.i. blood samples were withdrawn from the tail vein opposite to the injection site.

The next data set deals with T3, human CB1 (hCB1) (Homo sapiens, UniProt P21554).
T3 construct: purchased PerkinElmer, Waltham, MA, USA; host or cells: CHO-K1 cells (stably transfected), membrane preparation
T3 sequence (P21554 whole entry): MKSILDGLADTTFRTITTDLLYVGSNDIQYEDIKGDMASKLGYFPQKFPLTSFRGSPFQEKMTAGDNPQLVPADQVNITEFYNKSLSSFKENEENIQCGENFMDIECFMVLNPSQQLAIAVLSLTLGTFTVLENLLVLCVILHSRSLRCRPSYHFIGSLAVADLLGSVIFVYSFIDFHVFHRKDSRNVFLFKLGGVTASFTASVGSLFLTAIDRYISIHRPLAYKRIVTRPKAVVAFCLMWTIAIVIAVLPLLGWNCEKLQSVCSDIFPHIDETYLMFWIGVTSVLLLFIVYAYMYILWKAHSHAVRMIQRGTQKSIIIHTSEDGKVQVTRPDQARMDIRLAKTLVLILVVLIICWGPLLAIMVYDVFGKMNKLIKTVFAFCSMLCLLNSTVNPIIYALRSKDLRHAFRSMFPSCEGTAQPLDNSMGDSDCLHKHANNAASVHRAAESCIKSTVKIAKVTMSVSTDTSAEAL
Put plainly: Competition binding assay with [3H]CP-55,940, membranes of CHO-K1 cells transfected with hCB1. To be noted: three independent experiments, [3H]CP-55,940 1.4 nM, read-out: binding affinity (Ki) towards CB1. As for the experimental part: All samples were prepared in triplicates.

Another data set has as its target hCB2. To be noted: reported data; read-out: reported binding affinity towards human CB2; cited from earlier work.
The target in the next data set is hCB1. To be noted: reported data; read-out: reported binding affinity towards CB1; cited from earlier work.
A further data set addresses human CB2 (hCB2) (Homo sapiens, UniProt P34972). Put plainly: Competition binding assay with [3H]CP-55,940, membranes of CHO-K1 cells transfected with hCB2.

Chain of human CB2 (hCB2) (P34972 whole entry): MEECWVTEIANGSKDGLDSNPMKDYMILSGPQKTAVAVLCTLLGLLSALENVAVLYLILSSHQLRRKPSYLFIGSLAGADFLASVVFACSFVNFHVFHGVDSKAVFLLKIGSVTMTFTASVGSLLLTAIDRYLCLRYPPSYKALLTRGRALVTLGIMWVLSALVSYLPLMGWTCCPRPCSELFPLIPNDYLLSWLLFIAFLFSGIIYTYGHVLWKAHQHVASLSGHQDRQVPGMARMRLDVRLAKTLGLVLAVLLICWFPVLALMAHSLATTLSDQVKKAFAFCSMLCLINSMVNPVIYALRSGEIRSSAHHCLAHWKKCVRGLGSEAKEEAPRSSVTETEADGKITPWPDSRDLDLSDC
Description for human CB2 (hCB2): Frozen membrane preparations from CHO-K1 cells transfected with human CB1 (hCB1) and CB2 (hCB2), respectively (PerkinElmer, Waltham, MA, USA), were thawed on ice and diluted to a final protein concentration of 1 µg/mL in assay buffer (50 mM TRIS/HCl, 1 mM EDTA (Applichem, Darmstadt, Germany), 3 mM MgCl2, pH 7.4, containing 0.05% bovine serum albumin, BSA). […] All samples were prepared in triplicates. After 90 min, 3 mL ice cold assay buffer was added and samples were immediately filtered through Whatman GF/C filters (pre-soaked in 0.05% polyethylenimine) and washed twice with 3 mL ice cold assay buffer.

Regarding `CCCCOc1c(O[11CH3])ccc2cc(C(=O)NCC(F)c3ccccc3)c(=O)[nH]c12` (stereo not drawn) [[^11C]KP23], the “non-specific binding in spleen tissue” value is on record as “relatively high non-specific binding” at CB2 in rat spleen slices (rat spleen slices (Figure 1 A2), with 1 μM GW4058233) and “relatively high non-specific binding” in [1] (mouse spleen slices (Figure 1 B2), with 1 μM GW4058233). The “binding to CB2 in autoradiography” value was “specific binding” on CB2 in rat spleen slices (rat spleen slices, 0.6 nM tracer, blocked by excess (1 μM) GW4058233) and “specific binding” in [1] (mouse spleen slices, 0.6 nM tracer, blocked by excess (1 μM) GW4058233). In addition, the “stability (radioactive degradation products)” value in data set [2] is on record as “No radioactive degradation products”. In addition, the “plasma stability (radioactive degradation products)” value in [3] and in data set [4] was “No radioactive degradation products” each time. For the same compound, the brain uptake entry in data set [5] (healthy Wistar rat, i.v., PET, region of interest TAC analysis) is given as “low uptake”. Further, the “initial period of steadily increasing activity concentration in spleen, then slow washout” value in [5] (male, Wistar, rat, in vivo, iv) is recorded as 8 min p.i. Also, the “time of radioactivity peak in liver” value in [5] (male, Wistar, rat, in vivo, iv) is reported as “around 4 min p.i”. In addition, the spleen uptake entry in data set [5] (rat, in vivo, iv) is “high spleen uptake”. The “percentage of parent tracer radioactivity in blood plasma” value in data set [6] (15 min) was found to be 40%; in [6] (30 min) it was 25%. In addition, the “number of radiometabolites in blood plasma (more hydrophilic than parent)” value in data set [6] is “two to three”.
Take `CCCCOc1c(OC)ccc2cc(C(=O)NCC(F)c3ccccc3)c(=O)[nH]c12` (stereo not drawn) [KP23, 8-butoxy-N-(2-fluoro-2-phenylethyl)-7-methoxy-2-oxo-1,2-dihydroquinoline-3-carboxamide]: the Ki on human CB1 (hCB1) was over 10000 nM; on hCB2 it was 0.8 ± 0.3 nM; on hCB1, over 10000 nM; at human CB2 (hCB2) it was 6.8 ± 5.8 nM.
